Where a SMILES comes first, the peptide text is derived from it. Side-chain parts run from the residue outwards. [ ]: non-standard residue; d: D form. The star is where a group is joined. DOTA = O=C(O)CN1CCN(CC(=O)O)CCN(CC(=O)*)CCN(CC(=O)O)CC1; 2Nal = N[C@@H](Cc1ccc2ccccc2c1)C(=O)O; dNMeOrn = CN[C@H](CCCN)C(=O)O; 4Amb = NCc1ccc(C(=O)O)cc1
Key:
[1] = Ex vivo biodistribution in Daudi xenograft-bearing mice; details: male, NOD.Cg-Rag1tm1Mom Il2rgtm1Wjl/SzJ (NRG), mouse, iv, total radioactivity; for tissue uptake at 2 h: 2 h p.i.
Experimental: (§1) Male NOD.Cg-Rag1tm1Mom Il2rgtm1Wjl/SzJ (NRG) mice were obtained from an in-house breeding colony at the Animal Resource Centre of the BC Cancer Research Centre, Vancouver, Canada. Mice (6–10 weeks old, 25–30 g weight) were subcutaneously inoculated with 5 × 10^6 Daudi cells (100 μL; 1:1 ratio of PBS/Matrigel) on the left flank.
(§2) Additional groups of mice received 7.5 µg (0.25–0.3 mg/kg) LY2510924 as a blocking control i.p. 15 min before radiotracer injection, and euthanized 1 h p.i. Tissues were harvested, washed in PBS, blotted dry, and weighed, and radioactivity was counted on a Hidex AMG Automatic Gamma Counter. The counts were decay corrected, converted to absolute units using a calibration curve, and expressed as percent injected dose per gram of tissue (%ID/g).

[2] = system: CXCR4-expressing Daudi xenograft mice; assay: as above
Experimental: as §1, §2

[3] = 1 h p.i. blocked with LY2510924, mean

Question: With `CN1C(=O)[C@@H](Cc2ccc(O)cc2)NC(=O)CNC(=O)[C@H](Cc2ccc3ccccc3c2)NC(=O)[C@H](CCCNC(=N)N)NC(=O)[C@H]1CCCNC(=O)c1ccc(CNC(=O)CN2CCN(CC(=O)O)CCN(CC(=O)O)CCN(CC(=O)O)CC2)cc1` [[68Ga]Ga-Pentixafor, metal not drawn] (cyclo([dY][dNMeOrn]([4Amb-DOTA])R[2Nal]G)) as the compound, how does the tissue uptake at 1 h ([1]; adrenals, Adrenals uptake, 1 h p.i. blocked with LY2510924, mean) read?
Answer: 0.38 %ID/g

Question: And the tissue uptake at 1 h ([1]; adrenals, Adrenals uptake, 1 h p.i., mean)?
Answer: 0.34 %ID/g

Question: And the tissue uptake at 2 h ([1]; adrenals, Adrenals uptake, mean)?
Answer: 0.18 %ID/g

Question: What about the tissue uptake at 1 h ([1]; blood, Blood uptake, 1 h p.i. blocked (7.5 µg LY2510924 i.p. 15 min before tracer), mean) of the same compound?
Answer: 1.23 %ID/g

Question: What about the tissue uptake at 2 h ([1]; blood, Blood uptake, mean) of the same compound?
Answer: 0.28 ± 0.04 %ID/g

Question: What about the tissue uptake at 1 h ([1]; bone, Bone uptake, 1 h p.i. blocked with LY2510924, mean) of the same compound?
Answer: 0.27 %ID/g

Question: And the tissue uptake at 1 h ([1]; bone, Bone uptake, 1 h p.i., mean)?
Answer: 0.18 %ID/g

Question: What about the tissue uptake at 2 h ([1]; bone, Bone uptake, mean) of the same compound?
Answer: 0.14 %ID/g

Question: And the tissue uptake at 1 h ([1]; brain, Brain uptake, 1 h p.i. blocked with LY2510924, mean)?
Answer: 0.03 %ID/g

Question: And the tissue uptake at 1 h ([1]; brain, Brain uptake, 1 h p.i., mean)?
Answer: 0.03 %ID/g

Question: What about the tissue uptake at 2 h ([1]; brain, Brain uptake, mean) of the same compound?
Answer: 0.01 %ID/g

Question: What about the tissue uptake at 1 h ([1]; fat, Fat uptake, 1 h p.i. blocked with LY2510924, mean) of the same compound?
Answer: 0.18 %ID/g

Question: And the tissue uptake at 1 h ([1]; fat, Fat uptake, 1 h p.i., mean)?
Answer: 0.08 %ID/g

Question: And the tissue uptake at 2 h ([1]; fat, Fat uptake, mean)?
Answer: 0.04 %ID/g

Question: What about the tissue uptake at 1 h ([1]; heart, Heart uptake, 1 h p.i. blocked with LY2510924, mean) of the same compound?
Answer: 0.47 %ID/g

Question: What about the tissue uptake at 1 h ([1]; heart, Heart uptake, 1 h p.i., mean) of the same compound?
Answer: 0.36 %ID/g

Question: What about the tissue uptake at 2 h ([1]; heart, Heart uptake, mean) of the same compound?
Answer: 0.13 %ID/g

Question: And the tissue uptake at 1 h ([1]; intestine, Intestine uptake, 1 h p.i. blocked with LY2510924, mean)?
Answer: 0.59 %ID/g

Question: What about the tissue uptake at 2 h ([1]; intestine, Intestine uptake, mean) of the same compound?
Answer: 0.2 %ID/g

Question: And the tissue uptake at 1 h ([1]; kidney, Kidney uptake, 1 h p.i. blocked with LY2510924, mean)?
Answer: 3.16 %ID/g

Question: What about the tissue uptake at 1 h ([1]; kidney, Kidney uptake, 1 h p.i., mean) of the same compound?
Answer: 2.78 %ID/g

Question: What about the tissue uptake at 2 h ([1]; kidney, Kidney uptake, mean) of the same compound?
Answer: 1.76 ± 0.38 %ID/g

Question: What about the tissue uptake at 1 h ([1]; liver, Liver uptake, 1 h p.i. blocked with LY2510924, mean) of the same compound?
Answer: 1.25 %ID/g

Question: What about the tissue uptake at 1 h ([1]; liver, Liver uptake, 1 h p.i., mean) of the same compound?
Answer: 1.23 ± 0.15 %ID/g

Question: And the tissue uptake at 2 h ([1]; liver, Liver uptake, mean)?
Answer: 0.89 ± 0.12 %ID/g

Question: What about the tissue uptake at 1 h ([1]; lung, Lung uptake, 1 h p.i. blocked with LY2510924, mean) of the same compound?
Answer: 1.39 %ID/g

Question: And the tissue uptake at 1 h ([1]; lung, Lung uptake, 1 h p.i., mean)?
Answer: 1.16 ± 0.14 %ID/g

Question: And the tissue uptake at 2 h ([1]; lung, Lung uptake, mean)?
Answer: 0.54 ± 0.08 %ID/g

Question: And the tissue uptake at 1 h ([1]; muscle, Muscle uptake, 1 h p.i. blocked with LY2510924, mean)?
Answer: 0.26 %ID/g

Question: And the tissue uptake at 1 h ([1]; muscle, Muscle uptake, 1 h p.i., mean)?
Answer: 0.2 %ID/g

Question: And the tissue uptake at 2 h ([1]; muscle, Muscle uptake, mean)?
Answer: 0.06 ± 0.02 %ID/g

Question: And the tissue uptake at 1 h ([1]; pancreas, Pancreas uptake, 1 h p.i. blocked with LY2510924, mean)?
Answer: 0.25 %ID/g

Question: What about the tissue uptake at 1 h ([1]; pancreas, Pancreas uptake, 1 h p.i., mean) of the same compound?
Answer: 0.21 %ID/g

Question: What about the tissue uptake at 2 h ([1]; pancreas, Pancreas uptake, mean) of the same compound?
Answer: 0.08 %ID/g

Question: And the tissue uptake at 1 h ([1]; spleen, Spleen uptake, 1 h p.i. blocked with LY2510924, mean)?
Answer: 0.59 %ID/g

Question: What about the tissue uptake at 1 h ([1]; spleen, Spleen uptake, 1 h p.i., mean) of the same compound?
Answer: 0.63 %ID/g

Question: What about the tissue uptake at 2 h ([1]; spleen, Spleen uptake, mean) of the same compound?
Answer: 0.33 %ID/g

Question: What about the tissue uptake at 1 h ([1]; stomach, Stomach uptake, 1 h p.i. blocked with LY2510924, mean) of the same compound?
Answer: 0.17 %ID/g

Question: What about the tissue uptake at 1 h ([1]; stomach, Stomach uptake, 1 h p.i., mean) of the same compound?
Answer: 0.13 %ID/g

Question: And the tissue uptake at 2 h ([1]; stomach, Stomach uptake, mean)?
Answer: 0.05 %ID/g

Question: And the tissue uptake at 1 h ([1]; testes, Testes uptake, 1 h p.i. blocked with LY2510924, mean)?
Answer: 0.55 %ID/g

Question: What about the tissue uptake at 1 h ([1]; testes, Testes uptake, 1 h p.i., mean) of the same compound?
Answer: 0.39 %ID/g

Question: And the tissue uptake at 2 h ([1]; testes, Testes uptake, mean)?
Answer: 0.13 %ID/g

Question: What about the tissue uptake at 1 h ([1]; tumor (Daudi xenograft), Tumor uptake (Daudi xenograft), 1 h p.i. blocked with LY2510924, mean) of the same compound?
Answer: 0.61 %ID/g

Question: And the tissue uptake at 1 h ([1]; tumor (Daudi xenograft), Tumor uptake (Daudi xenograft), 1 h p.i., mean)?
Answer: 6.31 ± 1.02 %ID/g

Question: And the tissue uptake at 2 h ([1]; tumor (Daudi xenograft), Tumor uptake (Daudi xenograft), mean)?
Answer: 5.23 %ID/g

Question: And the “Tumor:Blood ratio” value [2, 3]?
Answer: 0.53

Question: What about the “Tumor:Bone ratio” value [2, 3] of the same compound?
Answer: 2.67

Question: What about the “Tumor:Liver ratio” value [2, 3] of the same compound?
Answer: 0.50

Question: What about the “Tumor:Lung ratio” value [2, 3] of the same compound?
Answer: 0.47

Question: What about the “Tumor:Muscle ratio” value [2, 3] of the same compound?
Answer: 2.55

Question: And the “Tumor:Spleen ratio” value [2, 3]?
Answer: 1.14

Question: And the “Tumor:Blood ratio” value ([2]; 1 h p.i., mean)?
Answer: 6.53

Question: And the “Tumor:Bone ratio” value ([2]; 1 h p.i., mean)?
Answer: 35.99

Question: What about the “Tumor:Kidney ratio” value ([2]; 1 h p.i., mean) of the same compound?
Answer: 2.29 ± 0.38

Question: What about the “Tumor:Liver ratio” value ([2]; 1 h p.i., mean) of the same compound?
Answer: 5.14

Question: What about the “Tumor:Lung ratio” value ([2]; 1 h p.i., mean) of the same compound?
Answer: 5.48

Question: What about the “Tumor:Muscle ratio” value ([2]; 1 h p.i., mean) of the same compound?
Answer: 33.25

Question: And the “Tumor:Spleen ratio” value ([2]; 1 h p.i., mean)?
Answer: 10.20

Question: What about the “Tumor:Blood ratio” value ([2]; 2 h p.i., mean) of the same compound?
Answer: 18.94

Question: What about the “Tumor:Bone ratio” value ([2]; 2 h p.i., mean) of the same compound?
Answer: 43.48

Question: What about the “Tumor:Kidney ratio” value ([2]; 2 h p.i., mean) of the same compound?
Answer: 3.07 ± 0.54

Question: What about the “Tumor:Liver ratio” value ([2]; 2 h p.i., mean) of the same compound?
Answer: 5.93

Question: What about the “Tumor:Lung ratio” value ([2]; 2 h p.i., mean) of the same compound?
Answer: 9.95

Question: And the “Tumor:Muscle ratio” value ([2]; 2 h p.i., mean)?
Answer: 95.44

Question: And the “Tumor:Spleen ratio” value ([2]; 2 h p.i., mean)?
Answer: 16.57
